Each structure is given as a SMILES string.

As usually defined, the melting point is the temperature of the solid-liquid transition.

Regarding `Nc1cccnn1`, the melting point is 169 to 171 °C. Then `CC(=O)c1ccc(OCc2ccccc2C)cc1`, with 98 to 100 °C. Then `CC1=CC(=C2Nc3cc(F)ccc3N2C(C)C)C=CC1=N`, with 136 to 138 °C.

Consider `CC(C)CNCC(O)c1ccccc1` (stereo not given), for which the melting point lay in the range of 61 to 63 °C. `CCCc1cc(=O)[nH]c(-c2ccccc2)n1`: the melting point was 149 to 151 °C. Then `CS(=O)(=O)Nc1ccc(N)cc1Cl`, with 181 to 183 °C; and `Cc1cc([N+](=O)[O-])cc(S(=O)(=O)Cl)c1C`, with 66 to 68 °C. Then `NC(=O)C(Cl)c1ccc(Br)cc1F` (stereo not given), with 101 to 103 °C; and `COc1ccc(C(=O)O)cc1-c1ccc(C(C)(C)C)cc1`, with 259 to 261 °C. Molecule `CC(=O)CN1C(=O)c2ccccc2S1(=O)=O` registered a melting point of 144 to 146 °C. The molecule `CCOC(=O)Cc1ccc(C(C)=O)cc1` came in with a melting point of 55 to 57 °C. Then `c1cn(C2CCNCC2)cn1`, with 135 to 137 °C. Then `CNC(C(=O)O)c1ccccc1C(F)(F)F` (stereo not given), with 290 to 292 °C; and `Nc1ccc2c(c1)CCN2C(=O)c1cccnc1`, with 181 to 183 °C. As to `O=S(=O)(Cl)c1ccc2c(Cl)ccc(Cl)c2c1`, the melting point fell in the range of 127 to 129 °C.

With `O=C(O)c1cc2c(s1)CCC2`, the melting point lay in the range of 199 to 201 °C. Then `O=C(O)c1ccc2c(c1)C(=O)N(C1CC1)C2=O`, with 220 to 222 °C; and `CC(C)(C)OC(=O)NCC(C)(C)C(=O)O`, with 116 to 118 °C. The molecule `COc1ccc(C(N)=NO)cn1` showed a melting point of 162 to 164 °C. With `Cc1ccc(-c2ccccc2C(=O)O)cc1`, the melting point was 146 to 148 °C. Turning to `Cc1c(F)cc(C(=O)O)cc1[N+](=O)[O-]`, the melting point is 168 to 170 °C.

The molecule `CN(C)c1ccc(-c2cncc(C(=O)O)c2)cc1` had a melting point of 284 to 286 °C. `CN(c1ccc(O)cc1)S(=O)(=O)c1ccc(Cl)cc1` had a melting point of 154 to 156 °C.

For `CCc1ccc(C(=O)CCl)cc1`, the melting point fell in the range of 41 to 43 °C. In the case of `Cc1cccc2[nH]cc(C=O)c12`, the melting point lay in the range of 188 to 190 °C. Then `COCCOCC(=O)Nc1cccc(N)c1C`, with 82 to 84 °C; and `CC(C)(C)NS(=O)(=O)c1ccccc1CN`, with 131 to 133 °C; and `N#Cc1nc2ccccc2cc1Br`, with 139 to 141 °C. `CC(Oc1ccccc1F)C(=O)NN` (stereo not given): the melting point lay in the range of 64 to 66 °C. `NC(=O)c1ccc(N)cc1F` had a melting point of 148 to 150 °C. Then `O=C(O)C1CC1c1cccc(Cl)c1Cl` (stereo not given), with 124 to 126 °C; and `CCOc1ccc(C(=O)N2CCCCC2)cc1N`, with 143 to 145 °C. The molecule `Cn1c(=O)[nH]c2cc(C(=O)O)ccc21` yielded a melting point of 391 to 393 °C. Then `C1CCc2nnc(CN3CCNCC3)n2CC1`, with 158 to 162 °C; and `CC(=O)C(N)=S`, with 59 to 61 °C; and `Nc1ccc(C(=O)O)nc1Br`, with 206 to 208 °C. Take `O=C1Nc2ccc(Br)cc2C12CCCC2`: the melting point was in the range of 201 to 203 °C. Then `N#Cc1cc(Cl)ccc1CS(=O)(=O)Cl`, with 106 to 108 °C; and `Cc1cc(C)c(C(=O)CCl)c(C)c1`, with 68 to 70 °C; and `CC(C)c1[nH]nc(C(=O)O)c1[N+](=O)[O-]`, with 149 to 151 °C. `OC(c1cnn(-c2ccccc2)c1)C(F)(F)F` (stereo not given): the melting point lay within 77 to 79 °C. With `COc1ccccc1Nc1nc(N)nc(CCl)n1`, the melting point fell in the range of 160 to 162 °C. For the molecule `Cc1cccc2c(CCC(=O)O)c[nH]c12`, the melting point lay within 149 to 151 °C. Then `N#Cc1ccc(S(=O)(=O)N2CCOCC2)cc1`, with 158 to 160 °C; and `Fc1cc(CCl)c2c(c1)COC(c1ccccc1)O2` (stereo not given), with 61 to 65 °C.

`N#Cc1cccc(N2CCCC2=O)c1` displayed a melting point of 81 to 83 °C. `NC(=O)c1cc(=NCC2CCCO2)cc[nH]1` (stereo not given) had a melting point of 123 to 125 °C. Then `O=C(O)c1ccc(NS(=O)(=O)c2ccc(F)cc2)cc1`, with 240 to 242 °C. Regarding `O=C(O)C1(c2ccccc2F)CC1`, the melting point is 106 to 108 °C. Then `NC1CCN(c2c(F)cccc2F)C1=O` (stereo not given), with 62 to 64 °C; and `CCOC(=O)c1sc2nc(CN3CCCCC3)nc(Cl)c2c1C`, with 105 to 107 °C; and `Ic1ccc(OCc2cccnc2)cc1`, with 72 to 74 °C. For the molecule `Cc1nc(C(N)=O)c(N)n1C`, the melting point lay in the range of 159 to 161 °C. `N#CC(Cl)c1c(F)cccc1Cl` (stereo not given): the melting point was 49 to 51 °C.

Consider `Cc1csc2ncc(C(=O)O)c(=O)n12`, for which the melting point lay in the range of 249 to 251 °C. `O=C(O)CSc1nnc(-c2ccc(Cl)cc2)o1` registered a melting point of 154 to 156 °C. Then `O=Cc1coc2ccc(F)cc2c1=O`, with 95 to 97 °C; and `Cn1cc(Br)cc1C(=O)NC1CC1`, with 112 to 114 °C. Then `NCc1cccc(NC(=O)c2ccccn2)c1`, with 74 to 76 °C; and `Cc1cc(C#N)ccc1NC1CC1`, with 101 to 103 °C. Then `CCC(CC)n1nc(C)cc1C(=O)O`, with 149 to 151 °C; and `Cn1ccc(N2CCCC(N)C2=O)n1` (stereo not given), with 79 to 81 °C; and `COc1ccc(NS(=O)(=O)c2cc(C(=O)O)ccc2F)cc1`, with 209 to 211 °C.

In the case of `Cc1nc2c(C#N)cnn2c(O)c1CC(=O)O`, the melting point lay in the range of 275 to 277 °C.

The molecule `O=C(O)CNC(=O)NCc1ccc([N+](=O)[O-])cc1` came in with a melting point of 166 to 168 °C. Then `COc1ccc2[nH]cc(C(=O)CC#N)c2c1`, with 289 to 291 °C. `O=C(O)Cc1cnn(-c2ccccc2)c1`: the melting point lay in the range of 107 to 109 °C.

`Cc1ccc([N+](=O)[O-])cc1NC(=O)CCCl` had a melting point of 155 to 157 °C.

Molecule `Nc1nnc(-c2ccc3c(c2)OCO3)o1` showed a melting point of 271 to 273 °C. Then `Cc1c(C(=O)O)sc2nccn12`, with 241 to 243 °C; and `C=CCNc1nnc(S)s1`, with 133 to 135 °C; and `CCCOc1ccc2c(c1)OCC(C(=O)O)=C2`, with 178 to 180 °C. Take `CC(C)c1ccc(CCC(=O)O)cc1`: the melting point lay in the range of 71 to 73 °C. Then `N#CCCC(=O)c1ccco1`, with 80 to 84 °C; and `Cc1ccc(S(=O)(=O)N(C)C)cc1C(=O)O`, with 173 to 175 °C; and `Cc1nc(-c2ccc(C(C)N)cc2)cs1` (stereo not given), with 74 to 76 °C. Then `Cc1cc(-c2csc(N)n2)c(C)o1`, with 89 to 91 °C; and `CCOC(=O)/C(C#N)=C/Nc1ccc(OC)cc1OC`, with 153 to 155 °C; and `O=C1OC(O)C(Cl)=C1Cl` (stereo not given), with 179 to 182 °C. `OCCCOc1cccc2ccccc12`: the melting point fell in the range of 65 to 67 °C. `O=Cc1cn(-c2cccc(Cl)c2Cl)nn1`: the melting point lay within 139 to 141 °C. The molecule `O=C(c1ccc(O)cc1)N1CCCC1` registered a melting point of 168 to 170 °C. Then `COc1ccc(-c2ncc(C(=O)O)s2)cc1`, with 239 to 241 °C; and `O=C(c1cccc([N+](=O)[O-])c1)C(F)(F)F`, with 53 to 55 °C. For `Cc1ccccc1OCc1nnc(S)[nH]1`, the melting point was 110 to 112 °C. Then `O=C(O)c1ccc(S(=O)(=O)Nc2cccc(Cl)c2F)o1`, with 151 to 153 °C. Turning to `CC(=O)c1ccc(S(N)(=O)=O)cc1`, the melting point lay within 178 to 180 °C. Then `Cc1c(N)cccc1C#N`, with 90 to 92 °C. As for `O=C(O)c1csc(-c2ccc([N+](=O)[O-])cc2)n1`, the melting point lay within 198 to 200 °C.

`CN1CCN(c2ncc(C=O)cn2)CC1` displayed a melting point of 90 to 92 °C.

On to `Cc1[nH]c(C2CCCN2)nc1-c1ccccc1` (stereo not given), for which the melting point fell in the range of 164 to 166 °C.

Molecule `CC(C)CC1NC(C(=O)O)CS1` (stereo not given) gave a melting point of 159 to 161 °C. Then `COc1ccccc1SCC(=O)O`, with 99 to 101 °C; and `O=C(O)C1CCCN(C(=O)CCOc2ccccc2)C1` (stereo not given), with 171 to 173 °C; and `O=c1[nH]c2ccc(S(=O)(=O)Cl)cc2[nH]1`, with 210 to 212 °C. `CCc1ccc2c(c1)C(=O)C(=O)N2C` gave a melting point of 96 to 98 °C. For the molecule `Cn1c(C(=O)O)c(Cl)c2cc(Br)ccc21`, the melting point was in the range of 250 to 252 °C. Then `CC(C)CS(=O)(=O)CC(=O)O`, with 46 to 48 °C. Then `Cn1cc(S(=O)(=O)Cl)cc1C(N)=O`, with 132 to 134 °C; and `Nc1cc(C(F)(F)F)ccc1N1CC(C(F)(F)F)OC1=O` (stereo not given), with 99 to 101 °C; and `CC(CC(=O)O)c1cccc(C(F)(F)F)c1` (stereo not given), with 83 to 85 °C. In the case of `CS(=O)(=O)c1cc(S(N)(=O)=O)ccc1F`, the melting point lay within 202 to 204 °C. Then `NC(=O)C1CC(C(=O)O)=NN1c1ccccc1` (stereo not given), with 209 to 211 °C; and `COc1ccc(C(N)c2cccc(S(C)(=O)=O)c2)cc1` (stereo not given), with 80 to 82 °C. On to `O=C(O)c1cc2c(F)cc(Br)cc2[nH]1`, for which the melting point was in the range of 230 to 232 °C.

With `COc1ccc2c(=O)[nH]cnc2c1`, the melting point lay in the range of 251 to 253 °C. The molecule `CCOc1cc(C(=O)O)c([N+](=O)[O-])cc1OC` registered a melting point of 213 to 215 °C. Then `NC1(C(=O)O)CCS(=O)(=O)CC1`, with 294 to 296 °C. `O=C(O)C1CC1c1ccc(Cl)c(Cl)c1` (stereo not given) came in with a melting point of 141 to 143 °C. The molecule `Cc1nn(C(C)(C)C)c2nc(C(C)C)cc(C(=O)O)c12` gave a melting point of 121 to 123 °C. On to `COC(=O)c1cc([N+](=O)[O-])ccc1N`, for which the melting point lay within 163 to 165 °C. Then `COc1ccc(C2C(C(=O)O)CC(=O)N2C)cc1` (stereo not given), with 183 to 185 °C; and `O=C(O)c1ccc(O)cc1F`, with 202 to 204 °C; and `Cc1noc2nc3c(cc12)CCOC3=O`, with 224 to 226 °C. Then `CCOc1ccccc1S(N)(=O)=O`, with 154 to 156 °C; and `Cn1cnnc1Sc1ccc(Br)cc1N`, with 144 to 146 °C; and `O=c1[nH]c(N2CCOCC2)cc2ccccc12`, with 212 to 214 °C.

In turn, `O=C(O)c1c2c(nc3ccccc13)C(=Cc1ccccc1)CC2` came in with a melting point of 279 to 281 °C. For `COc1cc(OC)c2c(-c3ccccc3)cc(S)nc2c1`, the melting point fell in the range of 230 to 232 °C. Then `O=C(O)C=CC(=O)NCc1ccncc1`, with 139 to 141 °C.
